In brackets after ≈: the same amount, converted by molar mass.
Assays:
Staphylococcus aureus [1] = test: Antibacterial activity against methicillin-resistant Staphylococcus aureus 12 assessed as inhibition of bacterial growth; format: functional
Staphylococcus aureus [2] = test: Antibacterial activity against methicillin-resistant Staphylococcus aureus 8 assessed as inhibition of bacterial growth; format: functional
Staphylococcus aureus [3] = test: Antibacterial activity against methicillin-resistant Staphylococcus aureus 3 assessed as inhibition of bacterial growth; format: functional
Staphylococcus aureus [4] = test: Antibacterial activity against methicillin-resistant Staphylococcus aureus 4 assessed as inhibition of bacterial growth; format: functional
Staphylococcus aureus [5] = test: Antibacterial activity against methicillin-resistant Staphylococcus aureus 11 assessed as inhibition of bacterial growth; format: functional
Staphylococcus aureus [6] = test: Antibacterial activity against methicillin-resistant Staphylococcus aureus 9 assessed as inhibition of bacterial growth; format: functional
Staphylococcus aureus [7] = test: Antibacterial activity against methicillin-resistant Staphylococcus aureus 6 assessed as inhibition of bacterial growth; format: functional
Staphylococcus aureus [8] = test: Antibacterial activity against methicillin-resistant Staphylococcus aureus; format: functional
[9] = Inhibition of methicillin-resistant Staphylococcus aureus pyruvate kinase
Staphylococcus aureus [10] = test: Antibacterial activity methicillin-resistant Staphylococcus aureus P-6642 assessed as inhibition of bacterial growth incubated for 16 to 24 hrs by broth microdilution assay; format: functional; settings: time 16-24 hrs
Staphylococcus aureus [11] = test: Antibacterial activity methicillin-resistant Staphylococcus aureus P-8029 assessed as inhibition of bacterial growth incubated for 16 to 24 hrs by broth microdilution assay; format: functional; settings: time 16-24 hrs
Staphylococcus aureus [12] = test: Antibacterial activity methicillin-resistant Staphylococcus aureus ST-2438 assessed as inhibition of bacterial growth incubated for 16 to 24 hrs by broth microdilution assay; format: functional; settings: time 16-24 hrs
Staphylococcus aureus [13] = test: Antibacterial activity methicillin-resistant Staphylococcus aureus ST-2071 assessed as inhibition of bacterial growth incubated for 16 to 24 hrs by broth microdilution assay; format: functional; settings: time 16-24 hrs
Staphylococcus aureus [14] = test: Antibacterial activity methicillin-resistant Staphylococcus aureus ST-5457 assessed as inhibition of bacterial growth incubated for 16 to 24 hrs by broth microdilution assay; format: functional; settings: time 16-24 hrs
Staphylococcus aureus [15] = test: Antibacterial activity methicillin-resistant Staphylococcus aureus ST-3151 assessed as inhibition of bacterial growth incubated for 16 to 24 hrs by broth microdilution assay; format: functional; settings: time 16-24 hrs
Staphylococcus aureus [16] = test: Antibacterial activity methicillin-resistant Staphylococcus aureus ST-10342 assessed as inhibition of bacterial growth incubated for 16 to 24 hrs by broth microdilution assay; format: functional; settings: time 16-24 hrs
Staphylococcus aureus [17] = test: Antibacterial activity methicillin-resistant Staphylococcus aureus ST-1745 assessed as inhibition of bacterial growth incubated for 16 to 24 hrs by broth microdilution assay; format: functional; settings: time 16-24 hrs
Staphylococcus aureus [18] = test: Antibacterial activity methicillin-resistant Staphylococcus aureus B-10760 assessed as inhibition of bacterial growth incubated for 16 to 24 hrs by broth microdilution assay; format: functional; settings: time 16-24 hrs
Staphylococcus aureus [19] = test: Antibacterial activity methicillin-resistant Staphylococcus aureus MTCC-96 assessed as inhibition of bacterial growth incubated for 16 to 24 hrs by broth microdilution assay; format: functional; settings: time 16-24 hrs
Staphylococcus aureus [20] = test: Antibacterial activity methicillin-resistant Staphylococcus aureus B-10732 assessed as inhibition of bacterial growth incubated for 16 to 24 hrs by broth microdilution assay; format: functional; settings: time 16-24 hrs
[21] = Cytotoxicity against human HeLa cells assessed as inhibition of cell growth; format: toxicity, cell-based
[22] = Cytotoxicity against human A549 cells assessed as inhibition of cell growth; format: toxicity, cell-based
[23] = Cytotoxicity against human PC-3 cells assessed as inhibition of cell growth; format: toxicity, cell-based
Staphylococcus aureus [24] = test: Antibacterial activity against Staphylococcus aureus ATCC 25923 assessed as inhibition of bacterial growth by agar well diffusion method; format: functional
Staphylococcus aureus [25] = test: Antibacterial activity against methicillin-resistant Staphylococcus aureus 252 assessed as inhibition of bacterial growth; format: functional
Staphylococcus aureus [26] = test: Antibacterial activity against Staphylococcus aureus assessed as inhibition of bacterial growth; format: functional

Cc1ccc(C(=O)CC2C[C@H](n3c(-c4cc5ccccc5n4S(=O)(=O)c4ccc(C)cc4)c(CC(=O)OCc4ccccc4)c4ccccc43)O[C@@H]2COC(=O)c2ccc(C)cc2)cc1 (stereo not given in full)
MIC (Staphylococcus aureus [1]): 3 µg/mL (≈ 3.39 µM) | MIC (Staphylococcus aureus [2]): 3 µg/mL (≈ 3.39 µM) | MIC (Staphylococcus aureus [3]): 3 µg/mL (≈ 3.39 µM) | MIC (Staphylococcus aureus [4]): 3 µg/mL (≈ 3.39 µM) | MIC (Staphylococcus aureus [5]): 3 µg/mL (≈ 3.39 µM) | MIC (Staphylococcus aureus [6]): 3 µg/mL (≈ 3.39 µM) | MIC (Staphylococcus aureus [7]): 3 µg/mL (≈ 3.39 µM)

CC(=O)/C(=C\c1cn(CC(=O)N2CCCCC2)c2ccccc12)n1c([N+](=O)[O-])cnc1C
MIC (Staphylococcus aureus [8]): 1 µg/mL (≈ 2.3 µM)

Cc1ccc(-c2onc3ccc4c(c(Br)cn4C(C)(C)C)c23)cc1
MIC (Staphylococcus aureus [8]): 4.3 µg/mL (≈ 11.2 µM)

Clc1ccc(-n2nc(C3CCNCC3)cc2/C=C/c2c[nH]c3ccc(Cl)cc23)cc1
MIC (Staphylococcus aureus [8]): 1 µg/mL (≈ 2.29 µM)

Fc1ccc(C(c2c[nH]c3ccc(Br)cc23)c2c[nH]c3ccc(Br)cc23)cc1
MIC (Staphylococcus aureus [8]): 1 µg/mL (≈ 2.01 µM)

c1ccc2c(-c3c[nH]c4ccccc34)c3c(nc2c1)[nH]c1ccccc13
MIC (Staphylococcus aureus [8]): 1 µg/mL (≈ 3 µM)

OCc1cc(-c2c[nH]c3ccc(Br)cc23)nc2cc(Cl)ccc12
MIC (Staphylococcus aureus [8]): < 1 µg/mL

N=C(N)N/N=C/c1cn(S(=O)(=O)c2ccccc2)c2ccc(-c3ccc(OC(F)(F)F)cc3)cc12
MIC (Staphylococcus aureus [8]): 3.13 µg/mL (≈ 6.24 µM)

CCOC(=O)CN(CCc1c(I)n([C@@H]2CC(OC(=O)c3ccc(C)cc3)[C@@H](COC(=O)c3ccc(C)cc3)O2)c2ccccc12)Cc1ccccc1 (stereo not given in full)
MIC (Staphylococcus aureus [1]): 6 µg/mL (≈ 7.36 µM) | MIC (Staphylococcus aureus [2]): 6 µg/mL (≈ 7.36 µM) | MIC (Staphylococcus aureus [3]): 6 µg/mL (≈ 7.36 µM) | MIC (Staphylococcus aureus [4]): 6 µg/mL (≈ 7.36 µM) | MIC (Staphylococcus aureus [5]): 6 µg/mL (≈ 7.36 µM) | MIC (Staphylococcus aureus [6]): 6 µg/mL (≈ 7.36 µM) | MIC (Staphylococcus aureus [7]): 6 µg/mL (≈ 7.36 µM)

O=C(C1=N[C@H](c2c[nH]c3cc(Br)ccc23)CN1)c1c[nH]c2cc(O)ccc12
IC50 [9]: 16 nM

Fc1ccc2c(-c3ccc4cc(Cl)ccc4n3)c[nH]c2c1
MIC (Staphylococcus aureus [8]): 0.62 µg/mL (≈ 2.09 µM)

COC(=O)c1ccc(-c2ccc3c(c2)c(/C=N/NC(=N)N)cn3S(=O)(=O)c2ccccc2)cc1
MIC (Staphylococcus aureus [8]): 3.13 µg/mL (≈ 6.58 µM)

CCCCn1cc(Br)c2c3c(-c4ccc(C)cc4)onc3ccc21
MIC (Staphylococcus aureus [8]): 4.3 µg/mL (≈ 11.2 µM)

Oc1cccc(C(c2c[nH]c3ccc(Br)cc23)c2c[nH]c3ccc(Br)cc23)c1
MIC (Staphylococcus aureus [8]): 1 µg/mL (≈ 2.02 µM)

CCCCn1cc(Br)c2c3c(-c4ccc(Cl)cc4)onc3ccc21
MIC (Staphylococcus aureus [8]): 5 µg/mL (≈ 12.4 µM)

CCCn1cc(Br)c2c3c(-c4ccc(OC)cc4)occ3ccc21
MIC (Staphylococcus aureus [8]): 1.4 µg/mL (≈ 3.64 µM)

O=C1NC[C@@H](c2c[nH]c3cc(Br)ccc23)N[C@H]1c1c[nH]c2ccccc12
IC50 [9]: 16 nM

Clc1ccc(Nc2nnc(Cc3c[nH]c4ccccc34)s2)c(Cl)c1
MIC (Staphylococcus aureus [8]): 25 µg/mL (≈ 66.6 µM)

O=C(/C=C/c1c[nH]c2ccccc12)c1cccc(OCc2ccccc2)c1
MIC (Staphylococcus aureus [10]): 12.5 µg/mL (≈ 35.4 µM) | MIC (Staphylococcus aureus [11]): 12.5 µg/mL (≈ 35.4 µM) | MIC (Staphylococcus aureus [12]): 12.5 µg/mL (≈ 35.4 µM) | MIC (Staphylococcus aureus [13]): 12.5 µg/mL (≈ 35.4 µM) | MIC (Staphylococcus aureus [14]): 12.5 µg/mL (≈ 35.4 µM) | MIC (Staphylococcus aureus [15]): 12.5 µg/mL (≈ 35.4 µM) | MIC (Staphylococcus aureus [16]): 12.5 µg/mL (≈ 35.4 µM) | MIC (Staphylococcus aureus [17]): 12.5 µg/mL (≈ 35.4 µM) | MIC (Staphylococcus aureus [18]): 12.5 µg/mL (≈ 35.4 µM) | MIC (Staphylococcus aureus [19]): 12.5 µg/mL (≈ 35.4 µM) | MIC (Staphylococcus aureus [20]): 12.5 µg/mL (≈ 35.4 µM)

N=C(N)N/N=C/c1cn(S(=O)(=O)c2ccccc2)c2ccc(-c3cccc(OC(F)(F)F)c3)cc12
MIC (Staphylococcus aureus [8]): 3.13 µg/mL (≈ 6.24 µM)

O=[N+]([O-])c1ccc(C(c2c[nH]c3ccc(Br)cc23)c2c[nH]c3ccc(Br)cc23)cc1
IC50 [21]: 2700 nM | IC50 [22]: 4.5 µM | IC50 [23]: 3.9 µM | MIC (Staphylococcus aureus [8]): 1 µg/mL (≈ 1.9 µM)

COc1ccc(C2C([N+](=O)[O-])C(c3ccccc3)NC23C(=O)N(Cc2ccccc2)c2ccccc23)cc1 (stereo not given)
MIC (Staphylococcus aureus [24]): 5 µg/mL (≈ 9.89 µM)

Clc1ccc2nc(-c3c[nH]c4ccc(Cl)cc34)ccc2c1
MIC (Staphylococcus aureus [8]): 0.62 µg/mL (≈ 1.98 µM)

c1ccc(Nc2nnc(Cc3c[nH]c4ccccc34)s2)cc1
MIC (Staphylococcus aureus [8]): 25 µg/mL (≈ 81.6 µM)

CC(C)(C)n1cc(Br)c2c3c(-c4ccc(Cl)cc4)onc3ccc21
MIC (Staphylococcus aureus [8]): 4.3 µg/mL (≈ 10.7 µM)

Fc1ccc2[nH]cc(-c3ccc4cc(Cl)ccc4n3)c2c1
MIC (Staphylococcus aureus [8]): 0.62 µg/mL (≈ 2.09 µM)

CC(C)(C)OC(=O)NCC(NC(=O)c1c[nH]c2ccc(Br)cc12)c1c[nH]c2ccc(Br)cc12 (stereo not given)
MIC (Staphylococcus aureus [25]): 2 µg/mL (≈ 3.47 µM)

O=C(O)c1cn(C2CC2)c2cc(N3CCNCC3)c(F)cc2c1=O [CIPROFLOXACIN]
MIC (Staphylococcus aureus [26]): 20 µg/mL (≈ 60.4 µM) | MIC (Staphylococcus aureus [24]): 0.3 µg/mL (≈ 0.905 µM)

Brc1ccc2[nH]cc(C3Nc4ccc(I)cc4[C@H]4OCO[C@@H]34)c2c1 (stereo not given in full)
MIC (Staphylococcus aureus [8]): 0.31 µg/mL (≈ 0.624 µM)
